This note sets out measurements from patent publication US20210251991A1, “SUBSTITUTED 2,2'-BIPYRIMIDINYL COMPOUNDS, ANALOGUES THEREOF, AND METHODS USING SAME” (priority 2018, published 2021).

The subject of the test is HBsAg in HepG2.2.15 cells. In words: HBsAg assay: inhibition of HBsAg in HepG2.2.15 cells (chemiluminescence immunoassay of supernatant). Format: cell-based, hepatitis B virus. The settings on record: read-out: sAg EC50; HepG2.2.15 cells, supernatant collected at day 6 after exposure, HBsAg CLIA. Here is the method:
Inhibition of HBsAg was determined in HepG2.2.15 cells. Cells were maintained in culture medium containing 10% fetal calf serum, […], Glutamine, penicillin/streptomycin. Cells were seeded in 96-well collagen-coated plate at a density of 30,000 cells/well. Serially diluted compounds were added to cells next day at the final DMSO concentration of 0.5%. Cells were incubated with compounds for 2-3 days, after which medium was removed. Fresh medium containing compounds was added to cells for additional 3-4 days. At day 6 after exposure of compounds, supernatant was collected, the HBsAg immunoassay (microplate-based chemiluminescence immunoassay kits, CLIA, Autobio Diagnosics Co., Zhengzhou, China, Catalog #CL0310-2) was used to determine the level of HBsAg according to manufactory instruction. Dose-response curves were generated and the EC50 value (effective concentrations that achieved 50% inhibitory effect) were determined using XLfit software. In addition, cells were seeded at a density of 5,000 cells/well for determination of cell viability in the presence and absence of compounds by using CellTiter-Glo reagent (Promega).

As for `CCC1c2cc(F)c(OC)cc2CN1c1cnc(C(=O)NS(C)(=O)=O)nc1` (single isomer, unassigned) [Example 103, 5-(1-Ethyl-6-fluoro-5-methoxyisoindolin-2-yl)-N-(methylsulfonyl)pyrimidine-2-carboxamide], the EC50 is 600 nM. The figure for `CCC1c2cc(F)c(OC)cc2CN1c1cnc(C(=O)Nc2ccccn2)nc1` (single isomer, unassigned) [Example 107, 5-(1-Ethyl-6-fluoro-5-methoxyisoindolin-2-yl)-N-(pyridin-2-yl)pyrimidine-2-carboxamide] is 49000 nM.

Regarding `CCC1c2cc(F)c(OC)cc2CN1c1cnc(C(=O)Nc2ccccn2)nc1` (single isomer, unassigned) [Example 108, 5-(1-Ethyl-6-fluoro-5-methoxyisoindolin-2-yl)-N-(pyridin-2-yl)pyrimidine-2-carboxamide], the EC50 is 560 nM. The figure for `CCC1c2cc(F)c(OC)cc2CN1c1ccnc(C(=O)NC)n1` (single isomer, unassigned) [Example 109, 4-(1-Ethyl-6-fluoro-5-methoxyisoindolin-2-yl)-N-methylpyrimidine-2-carboxamide] is 42000 nM; for `CCC1c2cc(F)c(OC)cc2CN1c1ccnc(C(=O)NC)n1` (single isomer, unassigned) [Example 110, 4-(1-Ethyl-6-fluoro-5-methoxyisoindolin-2-yl)-N-methylpyrimidine-2-carboxamide] it is 3000 nM. On to `CCC1c2cc(F)c(OC)cc2CCN1c1cnc(C(=O)O)nc1` (single isomer, unassigned) [Example 114, 5-(1-Ethyl-7-fluoro-6-methoxy-3,4-dihydro-1H-isoquinolin-2-yl)pyrimidine-2-carboxylic Acid], for which the 50% effective concentration (EC50) stood at 57 nM. The figure for `CCC1c2cc(F)c(OC)cc2CCN1c1cnc(C(=O)O)nc1` (single isomer, unassigned) [Example 115, 5-(1-Ethyl-7-fluoro-6-methoxy-3,4-dihydro-1H-isoquinolin-2-yl)pyrimidine-2-carboxylic Acid] is 6000 nM.

Regarding `CCC1c2cc(F)c(F)cc2CN1c1cnc(C(=O)O)nc1` (single isomer, unassigned) [Example 116, 5-(1-Ethyl-5,6-difluoroisoindolin-2-yl)pyrimidine-2-carboxylic Acid], the concentration giving a half-maximal response (EC50) was 3000 nM. In the case of `CCC1c2cc(F)c(F)cc2CN1c1cnc(C(=O)O)nc1` (single isomer, unassigned) [Example 117, 5-(1-Ethyl-5,6-difluoroisoindolin-2-yl)pyrimidine-2-carboxylic Acid], the EC50 turned out to be 15000 nM. The value for `CCC1c2cc(F)c(OC)cc2CCN1c1ccnc(-c2ncccn2)n1` (single isomer, unassigned) [Example 128, 2-(2,2′-Bipyrimidin-4-yl)-1-ethyl-7-fluoro-6-methoxy-1,2,3,4-tetrahydroisoquinoline] was 82 nM; that for `CCC1c2cc(F)c(OC)cc2CCN1c1ccnc(-c2ncccn2)n1` (single isomer, unassigned) [Example 129, 2-(2,2′-Bipyrimidin-4-yl)-1-ethyl-7-fluoro-6-methoxy-1,2,3,4-tetrahydroisoquinoline] was 15 nM; that for `CCCC1c2ccc(F)c(F)c2CCN1c1ccnc(-c2ncccn2)n1` (single isomer, unassigned) [Example 130, 2-([2,2′-Bipyrimidin]-4-yl)-5,6-difluoro-1-propyl-1,2,3,4-tetrahydroisoquinoline] was 97 nM. For `CCCC1c2ccc(F)c(F)c2CCN1c1ccnc(-c2ncccn2)n1` (single isomer, unassigned) [Example 131, 2-([2,2′-Bipyrimidin]-4-yl)-5,6-difluoro-1-propyl-1,2,3,4-tetrahydroisoquinoline], the EC50 came out at 2000 nM.

On to `CCC1c2cc(F)c(OC)cc2CCN1c1cnc(-c2ncccn2)nc1` (single isomer, unassigned) [Example 133, 2-(2,2′-Bipyrimidin-5-yl)-1-ethyl-7-fluoro-6-methoxy-1,2,3,4-tetrahydroisoquinoline], for which the EC50 was 3 nM.

The EC50 is the concentration giving half of the maximal effect.
